Article PMC8913687, “Novel indolic AMPK modulators induce vasodilatation through activation of the AMPK–eNOS–NO pathway” (Scientific Reports, 2022)
Where two headings read alike, the source gives them in different places. Values belong to the compound of their own block, whether it stands above or below them.

Tests used:
AMPKα1β1γ1 [1] = molecular target: T1, AMPKα1β1γ1 (Homo sapiens, UniProt Q13131+Q9Y478); assay: ADP-Glo kinase assay with SAMS peptide, Lineweaver-Burk kinetics vs ATP; binding also shown by SPR ([…] RU at […]); assay type: biochemical
T1 construct: gene PRKAA1; recombinant AMPK isoform α1β1γ1; with AMPK β1 (PRKAB1) and γ1 (PRKAG1)
T1 sequence (Q13131 whole entry, canonical isoform): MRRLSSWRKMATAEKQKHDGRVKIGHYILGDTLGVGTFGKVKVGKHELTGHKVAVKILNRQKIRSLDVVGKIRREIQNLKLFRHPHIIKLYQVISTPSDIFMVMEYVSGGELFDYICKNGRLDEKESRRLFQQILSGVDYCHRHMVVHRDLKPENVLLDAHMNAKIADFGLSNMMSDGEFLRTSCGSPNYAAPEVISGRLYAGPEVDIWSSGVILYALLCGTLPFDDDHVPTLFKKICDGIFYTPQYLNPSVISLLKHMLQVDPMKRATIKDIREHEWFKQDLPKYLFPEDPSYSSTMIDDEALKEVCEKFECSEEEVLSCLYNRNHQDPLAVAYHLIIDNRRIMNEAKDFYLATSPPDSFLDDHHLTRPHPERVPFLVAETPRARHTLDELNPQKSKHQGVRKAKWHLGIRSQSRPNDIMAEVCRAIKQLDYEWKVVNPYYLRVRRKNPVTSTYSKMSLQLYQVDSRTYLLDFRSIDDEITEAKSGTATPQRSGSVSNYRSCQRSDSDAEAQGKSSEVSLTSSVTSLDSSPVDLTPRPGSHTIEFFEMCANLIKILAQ
T1 sequence (Q9Y478 2-270): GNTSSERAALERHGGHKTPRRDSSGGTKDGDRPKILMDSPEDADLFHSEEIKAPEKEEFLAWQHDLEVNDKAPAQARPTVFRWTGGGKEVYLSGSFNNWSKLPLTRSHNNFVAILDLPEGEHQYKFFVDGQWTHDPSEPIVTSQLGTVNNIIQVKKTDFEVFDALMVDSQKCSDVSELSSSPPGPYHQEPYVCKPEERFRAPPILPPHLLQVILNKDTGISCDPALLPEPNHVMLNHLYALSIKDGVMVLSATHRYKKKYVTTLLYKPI
T1 sequence (P54619 whole entry partner, canonical isoform): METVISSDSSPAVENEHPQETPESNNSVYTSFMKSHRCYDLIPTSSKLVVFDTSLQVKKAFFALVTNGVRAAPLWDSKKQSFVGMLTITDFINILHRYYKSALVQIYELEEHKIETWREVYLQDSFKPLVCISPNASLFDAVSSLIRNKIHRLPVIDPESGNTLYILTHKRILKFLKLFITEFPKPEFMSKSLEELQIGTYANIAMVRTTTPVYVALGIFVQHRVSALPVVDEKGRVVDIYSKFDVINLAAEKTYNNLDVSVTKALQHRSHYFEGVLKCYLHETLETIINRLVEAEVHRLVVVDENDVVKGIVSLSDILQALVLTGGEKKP

AMPKα1β1γ1 [2] = molecular target: T1, AMPKα1β1γ1; assay: SPR at […]; also […] inhibition at […] in ADP-Glo kinase assay; assay type: binding
AMPKα1β1γ1 [3] = molecular target: T1, AMPKα1β1γ1; assay: as above; assay type: binding; remark: listed apart in the source
AMPKα1β1γ1 [4] = molecular target: T1, AMPKα1β1γ1; assay: SPR, […] series and competition with […] ATP; assay type: binding

Ki (AMPKα1β1γ1 [1]): 6.9 µM
SMILES: O=C(O)c1[nH]c2ccccc2c1-c1ccc(OCc2ccccc2)cc1 [IND6, 3-(4-(Benzyloxy)phenyl)-1H-indole-2-carboxylic acid]

Binding 100 μM (RU)^b / AMPK α1:β1:γ1 (AMPKα1β1γ1 [2]): 13.6 RU
SMILES: O=C(O)c1[nH]c2ccccc2c1-c1ccc(-c2ccccc2)cc1 [IND7]

Binding 100 μM (RU)^b / AMPK α1:β1:γ1 (AMPKα1β1γ1 [3]): 14.6 RU
SMILES: O=C(O)c1[nH]c2ccccc2c1-c1ccc(Oc2ccccc2)cc1 [IND8]

SMILES: CNC(=O)c1ccccc1Oc1nc(Nc2cc(OC)c(OC)c(OC)c2)ncc1Br [SBI-0206965]
SPR, 10-100 μM series and competition with 200 μM ATP (AMPKα1β1γ1 [4]): sensorgrams showed a progressive increase in the binding, which was much larger for SBI-0206965
